Data taken from ChEMBL document CHEMBL1201862, “PubChem BioAssay data set” (2004).
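Assay format: 96-well plates, 48-hour exposure. At the GI50, growth is halved.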 Active and inactive are the calls of the source. No stated cut-off is given here; in the data, active = GI50 up to about 1.1 µM and inactive = higher.

How the values were obtained:
Assay in all cases: NCI anticancer screen, dose series, 48 h
MDA-MB-231 = tested on: MDA-MB-231
OVCAR-3 = tested on: OVCAR-3
MDA-MB-435 = tested on: MDA-MB-435
HCT-116 = tested on: HCT-116
COLO 205 = tested on: COLO 205
SR = tested on: SR
SNB-75 = tested on: SNB-75
UACC-62 = tested on: UACC-62
MOLT-4 = tested on: MOLT-4
NCI/ADR-RES = tested on: NCI/ADR-RES
UO-31 = tested on: UO-31
SK-MEL-28 = tested on: SK-MEL-28
TK-10 = tested on: TK-10
UACC-257 = tested on: UACC-257
IGROV-1 = tested on: IGROV-1
MDA-N = tested on: MDA-N
NCI-H522 = tested on: NCI-H522
K562 = tested on: K562
Hs-578T = tested on: Hs-578T
RXF 393 = tested on: RXF 393

Structure (SMILES)	GI50 (MDA-MB-231)	GI50 (OVCAR-3)	GI50 (MDA-MB-435)	GI50 (HCT-116)	GI50 (COLO 205)	GI50 (SR)	GI50 (SNB-75)	GI50 (UACC-62)	GI50 (MOLT-4)	GI50 (NCI/ADR-RES)	GI50 (UO-31)	GI50 (SK-MEL-28)	GI50 (TK-10)	GI50 (UACC-257)	GI50 (IGROV-1)	GI50 (MDA-N)	GI50 (NCI-H522)	GI50 (K562)	GI50 (Hs-578T)	GI50 (RXF 393)
O=C1c2ccccc2C(=O)c2c(NC(=O)c3ccc4c5c(ncnc35)-c3ccccc3C4=O)cccc21	32.4 µM (inactive)	37.1 µM (inactive)	> 100 µM (inactive)	> 100 µM (inactive)	> 100 µM (inactive)	91.4 µM (inactive)	18.7 µM (inactive)	> 100 µM (inactive)	> 100 µM (inactive)	> 100 µM (inactive)	> 100 µM (inactive)	> 100 µM (inactive)	21.8 µM (inactive)	> 100 µM (inactive)	> 100 µM (inactive)	> 100 µM (inactive)	> 100 µM (inactive)	> 100 µM (inactive)	57.1 µM (inactive)	22.6 µM (inactive)
CC(/C=N/N=C1NCCCCN1)=N\N=C1NCCCCN1	> 100 µM (inactive)	> 100 µM (inactive)	47.9 µM (inactive)	86.3 µM (inactive)	22.3 µM (inactive)	73.3 µM (inactive)	> 100 µM (inactive)	> 100 µM (inactive)	87.3 µM (inactive)	> 100 µM (inactive)	> 100 µM (inactive)	> 100 µM (inactive)	> 100 µM (inactive)	47.6 µM (inactive)	> 100 µM (inactive)	52.2 µM (inactive)	> 100 µM (inactive)	37.1 µM (inactive)	> 100 µM (inactive)	> 100 µM (inactive)
CNC(=O)OCc1c(COC(=O)NC)c(C)n(-c2ccc(Br)cc2)c1C	13.9 µM (inactive)	14.6 µM (inactive)	16.8 µM (inactive)	10.8 µM (inactive)	13.4 µM (inactive)	1.38 µM (inactive)	4.17 µM (inactive)	4.89 µM (inactive)	6.79 µM (inactive)	16.3 µM (inactive)	5.57 µM (inactive)	16.4 µM (inactive)	11 µM (inactive)	15.3 µM (inactive)	3.98 µM (inactive)	15.7 µM (inactive)	10.2 µM (inactive)	15.8 µM (inactive)	16.2 µM (inactive)	5.37 µM (inactive)
O=[N+]([O-])c1c(F)c(F)c2c(c1F)Nc1ccccc1S2	2.27 µM (inactive)	2.03 µM (inactive)	4.81 µM (inactive)	2.47 µM (inactive)	13.9 µM (inactive)	2.62 µM (inactive)	17.3 µM (inactive)	5.61 µM (inactive)	2.61 µM (inactive)	25.9 µM (inactive)	18.2 µM (inactive)	2.51 µM (inactive)	23.8 µM (inactive)	1.49 µM (inactive)	3.08 µM (inactive)	4.42 µM (inactive)	4.68 µM (inactive)	2.87 µM (inactive)	7.1 µM (inactive)	2.25 µM (inactive)
CCCCCCCCCCCCCCCCCCOC(COP(=O)(O)OCC1OC(n2cc(F)c(=O)[nH]c2=O)CC1O)COP(=O)(O)OCC1OC(n2ccc(N)nc2=O)C(O)C1O (stereo not given)	> 100 µM (inactive)	> 100 µM (inactive)	19.5 µM (inactive)	6.19 µM (inactive)	20.8 µM (inactive)	0.925 µM (active)	22.6 µM (inactive)	2.56 µM (inactive)	1.72 µM (inactive)	6.49 µM (inactive)	9.64 µM (inactive)	64.6 µM (inactive)	33.2 µM (inactive)	> 79.3 µM (inactive)	13.6 µM (inactive)	> 95.5 µM (inactive)	> 40.2 µM (inactive)	> 32.2 µM (inactive)	> 100 µM (inactive)	16.4 µM (inactive)
CCCCCCOc1ccc(C(=O)NO)cc1	11 µM (inactive)	6.03 µM (inactive)	9.68 µM (inactive)	8.53 µM (inactive)	9.51 µM (inactive)	1.19 µM (inactive)	13.4 µM (inactive)	6.82 µM (inactive)	1.07 µM (active)	3.08 µM (inactive)	6.08 µM (inactive)	16 µM (inactive)	17.1 µM (inactive)	22.8 µM (inactive)	3.61 µM (inactive)	13.2 µM (inactive)	3.14 µM (inactive)	5.22 µM (inactive)	19.6 µM (inactive)	11.3 µM (inactive)
COc1cc2c3cc1Oc1c(OC)c(OC)cc4c1C(Cc1ccc(O)c(c1)-c1cc(ccc1OC)CC3N(C)CC2)N(C)CC4 (stereo not given)	13.3 µM (inactive)	21.6 µM (inactive)	23.6 µM (inactive)	12.3 µM (inactive)	25.1 µM (inactive)	0.659 µM (active)	18.7 µM (inactive)	23.9 µM (inactive)	11.8 µM (inactive)	25.9 µM (inactive)	13.9 µM (inactive)	27 µM (inactive)	32.9 µM (inactive)	21 µM (inactive)	22.1 µM (inactive)	13.6 µM (inactive)	11.5 µM (inactive)	6 µM (inactive)	21.3 µM (inactive)	1.96 µM (inactive)
O=c1[nH]c2nccn2c(Cl)c1Br	17.5 µM (inactive)	19.8 µM (inactive)	19.8 µM (inactive)	32.5 µM (inactive)	18.6 µM (inactive)	22.4 µM (inactive)	33.7 µM (inactive)	19.4 µM (inactive)	20.2 µM (inactive)	22.9 µM (inactive)	60 µM (inactive)	19.4 µM (inactive)	> 100 µM (inactive)	16.4 µM (inactive)	20.3 µM (inactive)	20 µM (inactive)	14.6 µM (inactive)	19.6 µM (inactive)	26.9 µM (inactive)	1.94 µM (inactive)
CCCC1=C(OC)C(=O)c2c(C)cc(Cl)nc2C1=O	5.53 µM (inactive)	2.81 µM (inactive)	1.84 µM (inactive)	2.62 µM (inactive)	7.93 µM (inactive)	2.11 µM (inactive)	7.62 µM (inactive)	3.3 µM (inactive)	1.55 µM (inactive)	4.55 µM (inactive)	13.5 µM (inactive)	6.81 µM (inactive)	19.9 µM (inactive)	6.53 µM (inactive)	11.7 µM (inactive)	1.73 µM (inactive)	2.43 µM (inactive)	2.02 µM (inactive)	3.75 µM (inactive)	7.67 µM (inactive)
CCCCCCCCCCCCCCCCCCNc1ccn(C2OC(COP(=O)(O)OCC3OC(n4cc(F)c(NCCCCCCCCCCCCCCCCCC)nc4=O)CC3O)C(O)C2O)c(=O)n1 (stereo not given)	78.9 µM (inactive)	> 100 µM (inactive)	> 100 µM (inactive)	> 100 µM (inactive)	> 100 µM (inactive)	> 100 µM (inactive)	> 100 µM (inactive)	> 100 µM (inactive)	> 100 µM (inactive)	> 100 µM (inactive)	> 100 µM (inactive)	> 100 µM (inactive)	> 100 µM (inactive)	> 100 µM (inactive)	> 100 µM (inactive)	> 100 µM (inactive)	38.9 µM (inactive)	> 100 µM (inactive)	> 100 µM (inactive)	> 100 µM (inactive)
CC(=O)OC(Cc1cc(C=C(C(F)(F)F)C(F)(F)F)cc(C)n1)(C(F)(F)F)C(F)(F)F	1.5 µM (inactive)	1.36 µM (inactive)	1.48 µM (inactive)	1.1 µM (active)	0.759 µM (active)	0.352 µM (active)	2.03 µM (inactive)	1.68 µM (inactive)	< 0.01 µM (active)	2.28 µM (inactive)	1.64 µM (inactive)	1.38 µM (inactive)	2.8 µM (inactive)	1.74 µM (inactive)	1.1 µM (active)	1.55 µM (inactive)	2.01 µM (inactive)	0.774 µM (active)	1.95 µM (inactive)	0.855 µM (active)
CC[C@@]1(O)C(=O)OCc2c1cc1n(c2=O)Cc2c-1nc1ccccc1c2/C=N\NC(=O)C1CCCN1 (stereo not given in full)	14.7 µM (inactive)	4.42 µM (inactive)	2 µM (inactive)	0.354 µM (active)	6.05 µM (inactive)	< 0.01 µM (active)	0.104 µM (active)	< 0.0182 µM (active)	0.221 µM (active)	0.513 µM (active)	0.457 µM (active)	6.58 µM (inactive)	19.4 µM (inactive)	3.01 µM (inactive)	5.2 µM (inactive)	1.8 µM (inactive)	0.282 µM (active)	0.163 µM (active)	22.5 µM (inactive)	0.364 µM (active)
O=C(O)c1ccccc1C1CCCc2c1[nH]c1ccccc21 (stereo not given)	37.3 µM (inactive)	83.4 µM (inactive)	31.3 µM (inactive)	33.8 µM (inactive)	74 µM (inactive)	47 µM (inactive)	12.7 µM (inactive)	53.2 µM (inactive)	27.2 µM (inactive)	66.1 µM (inactive)	58.5 µM (inactive)	96.6 µM (inactive)	> 100 µM (inactive)	69.7 µM (inactive)	31.5 µM (inactive)	27.6 µM (inactive)	47.9 µM (inactive)	34.6 µM (inactive)	86.9 µM (inactive)	22.3 µM (inactive)
O=C(O)/C=C/c1c2ccc(=O)c(O)c-2oc2c(O)c(O)ccc12	20.8 µM (inactive)	45 µM (inactive)	17.4 µM (inactive)	17 µM (inactive)	> 100 µM (inactive)	31.8 µM (inactive)	48 µM (inactive)	50.1 µM (inactive)	18.9 µM (inactive)	65.3 µM (inactive)	33.9 µM (inactive)	> 100 µM (inactive)	> 100 µM (inactive)	> 100 µM (inactive)	82.6 µM (inactive)	16.1 µM (inactive)	> 100 µM (inactive)	21.7 µM (inactive)	58.6 µM (inactive)	> 100 µM (inactive)
